US11998515B1, “Enhancement of curcumin plasma levels using eucalyptol co-administration” (KING FAISAL UNIVERSITY, priority 2023, dated 2024)

Experiment: Curcumin concentration in blood of rats after ten days of once-daily oral dosing, determined by HPLC/DAD
Format: in vivo
Procedure: This experiment involved the use of 6 groups of rats (n=6):
Group 1: is the control group, where the animals received a solution of 0.5% carboxy methyl cellulose (CMC) in normal saline (formulation vehicle) once daily orally for ten days.
Group 2: Rats were given Eucalyptol (20 mg/kg) solubilized in 0.5% carboxy methyl cellulose (CMC) in normal saline once a day orally for ten days.
Group 3: Rats were administered curcumin (10 mg/kg) solubilized in 0.5% carboxy methyl cellulose (CMC) in normal saline once daily orally for ten days.
Groups 4, 5 and 6: Rats were given combinations of curcumin (10 mg/kg) with Eucalyptol (5 mg/kg, group 4), (10 mg/kg group 5), and (20 mg/kg, group 6), solubilized in 0.5% carboxy methyl cellulose (CMC) in normal saline orally once daily for ten days.
After the last dose on day 10, blood samples were withdrawn from animals after 0.5, 1, 2, 4, 6, 12 and 24 hours, and HPLC/DAD techniques determined the concentrations of curcumin.

time after administration at which curcumin concentration increased in serum (after last dose on day 10, curcumin 10 mg/kg alone): 1 h
time after administration at which curcumin concentration reached the maximum concentration in serum (after last dose on day 10, curcumin 10 mg/kg alone (group 3)): 6 h
SMILES: COc1cc(/C=C/C(=O)CC(=O)/C=C/c2ccc(O)c(OC)c2)ccc1O [curcumin]
